Measured values as given in patent US8106055B2, “Substituted amide compounds” (Gruenenthal GmbH, priority 2007, dated 2012).

Legend:
[1] = biological target: T1, human μ opiate receptor (Homo sapiens, UniProt P35372); test: Affinity for the human μ opiate receptor ([3H]-naloxone displacement, CHO-K1 receptor membrane preparation, SPA); assay type: binding; settings: test concentration of 1 μM
T1 construct: purchased PerkinElmer Life Sciences, Zaventem, Belgium RB-HOM; host or cells: CHO-K1 cells (membrane preparation)
How it was run: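 Readout is percent displacement of [3H]-naloxone (1 nmol/l) from human μ receptor in CHO-K1 membranes, measured at 1 μmol/l compound. Incubation runs 90 minutes at room temperature with WGA-SPA beads in Tris-HCl/BSA buffer; non-specific binding is defined with 100 μmol/l naloxone.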

[2] = biological target: T2, serotonin (5-HT) reuptake (Rattus norvegicus, UniProt P31652); test: Inhibition of serotonin (5HT) reuptake in synaptosomes from rat brain; assay type: biochemical; settings: test concentration of 10 μM
T2 construct: synaptosomes are freshly isolated from areas of the rat brain; from tissue; host or cells: rat brain synaptosomes (P2 fraction)
How it was run: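 Freshly isolated rat brain synaptosomes (P2 fraction) used for 5-HT reuptake. Test compound at 10 μM, activity given as % inhibition.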

T1 sequence (P35372 whole entry): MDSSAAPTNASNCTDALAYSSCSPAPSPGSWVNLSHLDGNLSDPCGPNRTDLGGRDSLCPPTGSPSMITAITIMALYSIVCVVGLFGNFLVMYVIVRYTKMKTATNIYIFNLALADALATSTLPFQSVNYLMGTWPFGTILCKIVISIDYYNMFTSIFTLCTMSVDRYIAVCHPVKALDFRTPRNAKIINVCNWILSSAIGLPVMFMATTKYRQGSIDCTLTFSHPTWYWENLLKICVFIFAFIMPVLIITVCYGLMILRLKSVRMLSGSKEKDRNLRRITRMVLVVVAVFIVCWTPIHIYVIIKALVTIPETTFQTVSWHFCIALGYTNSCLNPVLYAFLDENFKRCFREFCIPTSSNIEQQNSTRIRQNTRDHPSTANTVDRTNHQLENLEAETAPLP
T2 sequence (P31652 whole entry): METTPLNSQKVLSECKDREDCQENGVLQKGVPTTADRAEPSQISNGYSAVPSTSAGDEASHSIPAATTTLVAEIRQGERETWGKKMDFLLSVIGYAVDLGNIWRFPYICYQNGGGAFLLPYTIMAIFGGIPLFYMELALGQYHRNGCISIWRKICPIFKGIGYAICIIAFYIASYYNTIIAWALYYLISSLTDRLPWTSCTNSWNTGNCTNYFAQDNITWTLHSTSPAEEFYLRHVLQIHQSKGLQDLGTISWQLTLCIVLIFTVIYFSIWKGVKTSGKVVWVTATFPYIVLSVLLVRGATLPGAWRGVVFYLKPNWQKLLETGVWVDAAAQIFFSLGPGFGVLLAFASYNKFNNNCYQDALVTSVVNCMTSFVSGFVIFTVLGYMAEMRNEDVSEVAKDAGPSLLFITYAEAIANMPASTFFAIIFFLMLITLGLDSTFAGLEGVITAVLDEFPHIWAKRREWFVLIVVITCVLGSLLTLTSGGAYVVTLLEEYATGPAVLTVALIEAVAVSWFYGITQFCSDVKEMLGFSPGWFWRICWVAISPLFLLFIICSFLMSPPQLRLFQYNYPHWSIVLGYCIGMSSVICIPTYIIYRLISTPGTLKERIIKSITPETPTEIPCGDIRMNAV

Row | Compound | μ (binding on the μ opioid receptor, % inhibition) [1] [%] | 5-HT (inhibition of reuptake of serotonin, % inhibition) [2] [%]
1 | CN(C)C(c1cccc(F)c1)C1CCC(CCNC(=O)COCCN(Cc2ccccc2)S(=O)(=O)c2ccccc2)CC1 (centres unmarked) [Example 278] | 77 | 98
2 | COc1cc(C)c(S(=O)(=O)N2CCCC(OCC(=O)NC3CCC(C(c4cccc(F)c4)N(C)C)CC3)C2)c(C)c1C (centres unmarked) [Example 279] | 77 | 85
3 | COc1ccc(S(=O)(=O)N2CCCCC2COCC(=O)NCC2CCC(C(c3ccc(Cl)cc3)N(C)C)CC2)c(OC)c1 (centres unmarked) [Example 280] | 73 | 78
4 | COc1ccc(S(=O)(=O)N2CCCCC2COCC(=O)NCCC2CCC(C(c3cccc(F)c3)N(C)C)CC2)c(OC)c1 (centres unmarked) [Example 281] | 77 | 89
5 | CN(C)C(c1cccs1)C1CCC(NC(=O)COCCN(C)S(=O)(=O)c2ccc(OC(F)(F)F)cc2)CC1 (centres unmarked) [Example 282] | 74 | 52
6 | CN(C)C(c1cccc(F)c1)C1CCC(NC(=O)COC2CCN(S(=O)(=O)c3ccc(Cl)cc3Cl)C2)CC1 (centres unmarked) [Example 283] | 74 | 91
7 | CN(C)C(c1ccc(Cl)cc1)C1CCC(CNC(=O)COCCN(C)S(=O)(=O)c2ccc(Cl)cc2)CC1 (centres unmarked) [Example 284] | 70 | 87
8 | CN(C)C(c1ccc(F)cc1)C1CCC(CCNC(=O)COCCN(C)S(=O)(=O)c2c(Cl)cccc2Cl)CC1 (centres unmarked) [Example 285] | 69 | 89
9 | COc1cc(C)c(S(=O)(=O)N2CCC(OCC(=O)NC3CCC(C(c4cccc(F)c4)N(C)C)CC3)CC2)c(C)c1C (centres unmarked) [Example 286] | 76 | 92
10 | COc1cc(C)c(S(=O)(=O)N2CCC(OCC(=O)NCC3CCC(C(c4cccc(F)c4)N(C)C)CC3)CC2)c(C)c1C (centres unmarked) [Example 287] | 71 | 96
11 | COc1ccc(S(=O)(=O)N2Cc3ccccc3CC2COCC(=O)NCC2CCC(C(c3ccc(F)cc3)N(C)C)CC2)cc1 (centres unmarked) [Example 288] | 65 | 94
12 | CN(C)C(c1ccc(Cl)cc1)C1CCC(CCNC(=O)COCCN(C)S(=O)(=O)c2cccc(C(F)(F)F)c2)CC1 (centres unmarked) [Example 289] | 67 | 94
13 | CN(C)C(c1ccc(F)cc1)C1CCC(NC(=O)COC2CCN(S(=O)(=O)c3ccc(Cl)cc3Cl)C2)CC1 (centres unmarked) [Example 290] | 67 | 89
14 | CN(C)C(c1ccc(Cl)cc1)C1CCC(CCNC(=O)COCCN(C)S(=O)(=O)c2ccc(Cl)cc2Cl)CC1 (centres unmarked) [Example 291] | 65 | 81
15 | COc1ccc(S(=O)(=O)N(C)CCOCC(=O)NCCC2CCC(C(c3cccc(F)c3)N(C)C)CC2)cc1 (centres unmarked) [Example 292] | 74 | 83
16 | COc1ccc(S(=O)(=O)N(C)CCOCC(=O)NCCC2CCC(C(c3cccc(F)c3)N(C)C)CC2)cc1OC (centres unmarked) [Example 293] | 75 | 95
17 | CN(C)C(c1ccc(Cl)cc1)C1CCC(CNC(=O)COCC2CCCN(S(=O)(=O)c3ccccc3)C2)CC1 (centres unmarked) [Example 294] | 63 | 88
18 | CN(C)C(c1cccc(F)c1)C1CCC(CCNC(=O)COCC2CCCN(S(=O)(=O)c3ccccc3)C2)CC1 (centres unmarked) [Example 295] | 71 | 99
19 | CN(C)C(c1cccc(F)c1)C1CCC(CNC(=O)COCCN(Cc2ccccc2)S(=O)(=O)c2ccccc2)CC1 (centres unmarked) [Example 296] | 64 | 96
20 | CN(C)C(c1cccc(F)c1)C1CCC(NC(=O)COCCN(C)S(=O)(=O)c2cccc(C(F)(F)F)c2)CC1 (centres unmarked) [Example 297] | 74 | 86
21 | COc1cc(C)c(S(=O)(=O)N(C)CCOCC(=O)NCC2CCC(C(c3ccc(Cl)cc3)N(C)C)CC2)c(C)c1C (centres unmarked) [Example 298] | 64 | 79
22 | CN(C)C(c1ccc(Cl)cc1)C1CCC(CNC(=O)COC2CCN(S(=O)(=O)c3ccccc3)C2)CC1 (centres unmarked) [Example 299] | 63 | 103

Row | Compound | μ (binding on the μ opioid receptor, % inhibition) [1] [%] | 5-HT (inhibition of reuptake of serotonin, % inhibition) [2] [%]
23 | CN(C)C(c1ccccc1)C1CCC(CNC(=O)COC2CCN(S(=O)(=O)c3ccccc3)CC2)CC1 (centres unmarked) [Example 300] | 66 | 94
24 | CN(C)C(c1ccc(Cl)cc1)C1CCC(CNC(=O)COC2CCCN(S(=O)(=O)c3ccccc3)C2)CC1 (centres unmarked) [Example 301] | 69 | 92
25 | CN(C)C(c1cccc(F)c1)C1CCC(CNC(=O)COCCN(C)S(=O)(=O)c2cccc(C(F)(F)F)c2)CC1 (centres unmarked) [Example 302] | 75 | 92
26 | CN(C)C(c1cccc(F)c1)C1CCC(CNC(=O)COCCN(C)S(=O)(=O)c2ccc(OC(F)(F)F)cc2)CC1 (centres unmarked) [Example 303] | 66 | 83
27 | Cc1ccc(S(=O)(=O)N2CCC(OCC(=O)NCC3CCC(C(c4ccc(Cl)cc4)N(C)C)CC3)C2)cc1 (centres unmarked) [Example 304] | 64 | 88
28 | Cc1ccc(S(=O)(=O)N2CCC(OCC(=O)NCCC3CCC(C(c4ccc(Cl)cc4)N(C)C)CC3)C2)cc1 (centres unmarked) [Example 305] | 63 | 88
29 | Cc1ccc(S(=O)(=O)N(C)CCOCC(=O)NCCC2CCC(C(c3ccc(Cl)cc3)N(C)C)CC2)cc1 (centres unmarked) [Example 306] | 60 | 91
30 | COc1cc(C)c(S(=O)(=O)N2CCC(OCC(=O)NCCC3CCC(C(c4cccc(F)c4)N(C)C)CC3)C2)c(C)c1 (centres unmarked) [Example 307] | 73 | 97
31 | CN(C)C(c1cccc(F)c1)C1CCC(CNC(=O)COCCN2CCN(S(=O)(=O)c3ccccc3)CC2)CC1 (centres unmarked) [Example 308] | 60 | 93
32 | CN(C)C(c1cccc(F)c1)C1CCC(CNC(=O)COC2CCCN(S(=O)(=O)c3ccccc3)C2)CC1 (centres unmarked) [Example 309] | 69 | 94
33 | CCN(CCOCC(=O)NCC1CCC(C(c2ccc(Cl)cc2)N(C)C)CC1)S(=O)(=O)c1c(C)cc(OC)c(C)c1C (centres unmarked) [Example 310] | 61 | 83
34 | COc1ccc(S(=O)(=O)N2CCCCC2COCC(=O)NCCC2CCC(C(c3ccc(Cl)cc3)N(C)C)CC2)cc1 (centres unmarked) [Example 311] | 67 | 95
35 | COc1ccc(S(=O)(=O)N2CCCCC2CCOCC(=O)NCC2CCC(C(c3ccc(Cl)cc3)N(C)C)CC2)cc1 (centres unmarked) [Example 312] | 61 | 89
36 | COc1ccc(S(=O)(=O)N2CCCC2COCC(=O)NCC2CCC(C(c3cccc(F)c3)N(C)C)CC2)cc1 (centres unmarked) [Example 313] | 71 | 93
37 | CN(C)C(c1ccc(Cl)cc1)C1CCC(CNC(=O)COCCN(C)S(=O)(=O)c2cccc(C(F)(F)F)c2)CC1 (centres unmarked) [Example 314] | 64 | 93
38 | COc1cc(C)c(S(=O)(=O)N(C)CCOCC(=O)NCCC2CCC(C(c3ccc(Cl)cc3)N(C)C)CC2)c(C)c1C (centres unmarked) [Example 317] | 62 | 88
39 | CN(C)C(c1ccc(Cl)cc1)C1CCC(CNC(=O)COCCN(C)S(=O)(=O)c2c(Cl)cc(Cl)cc2Cl)CC1 (centres unmarked) [Example 318] | 65 | 91
40 | COc1cc(C)c(S(=O)(=O)N2CCC(CCOCC(=O)NCC3CCC(C(c4cccc(F)c4)N(C)C)CC3)CC2)c(C)c1C (centres unmarked) [Example 319] | 71 | 87
41 | COc1cc(C)c(S(=O)(=O)N2CCN(CCOCC(=O)NCCC3CCC(C(c4ccc(Cl)cc4)N(C)C)CC3)CC2)c(C)c1C (centres unmarked) [Example 320] | 65 | 98
42 | COc1ccc(S(=O)(=O)N2CCCCC2COCC(=O)NCC2CCC(C(c3ccc(Cl)cc3)N(C)C)CC2)cc1 (centres unmarked) [Example 321] | 70 | 86
43 | COc1ccc(S(=O)(=O)N2CCCCC2COCC(=O)NC2CCC(C(c3cccc(F)c3)N(C)C)CC2)c(OC)c1 (centres unmarked) [Example 322] | 70 | 78
